Laboratory results published in patent publication US20110045102A1, “Cancer chemotherapy compositions comprising PI3K pathway modulators and triptolide” (priority 2005, published 2011).

Key:
[1] = tested on: OCC1-SEAP-12 cells; assay: Growth assay, [3H] thymidine incorporation (Example III); assay type: cell-based, human; settings: LY294002, 18h treatment
Method: Cell proliferation was analyzed by determining the amount of [^3H] thymidine incorporation Into newly synthesized DNA. The OCC1-SEAP-12 cells were plated in 24 well plates in Ham's F-12 medium plus 10% BCS and allowed to reach 50 to 70% confluence. Following a 48 hr serum starvation, the culture medium was changed to Dulbecco's Modified Eagle Medium (DMEM) plus 0.1% BSA and 0.1% BCS containing either vehicle control or carboplatin (0-100 μg/ml) alone, or in combination with LY294002 (0-20 μM). Treatments were removed after 18h and cells were incubated for 4 hr in medium containing 5 μCi/ml of [^3H] thymidine. Medium was removed and cells were disrupted by sonication in phosphate buffered saline (PBS). An aliquot of the sonicated solution of PBS was loaded onto a DEAE filtration plate (Millipore, Bedford, Mass.), and individual filters with bound DNA were collected for scintillation counting. Data was normalized to total DNA per well and was determined by a SYBR green fluorescent assay (Nilsson E E, Westfall S D, McDonald C, Ligon T, Sadler-Riggleman I, Skinner M K. An in vivo mouse reporter gene (human secreted alkaline phosphatase) model to monitor ovarian tumor growth and response to therapeutics. Cancer Chemother Pharmacol 2002; 49(2):93-100).

[2] = tested on: Akt; assay: Western blot for Akt phosphorylation (Example III); assay type: cell-based, human; settings: 6 hr and 24 hr; LY294002 10 (FIG. 18 legend: mM), carboplatin 50
Method: The OCC1-SEAP-12 cells were grown to 80% confluence. […] […] Total cell lysates were subjected to SDS polyacrylamide gel electrophoresis 9 page) and transferred to PVDF membranes (Millipore, Bedford, Mass.). Membranes were immunoblotted with antibodies to both the phosphorylated and non-phosphorylated forms of […] (Cell Signaling Technology, Beverly, Mass.), or alternatively, with antibodies to cleaved and full length caspase-3 (Cell Signaling Technology, Beverly, Mass.).

[3] = tested on: caspase 3; assay: Western blot for active caspase 3 (Example III); assay type: cell-based, human; settings: LY294002 10 μM, carboplatin 50 μg/ml
Method: The OCC1-SEAP-12 cells were grown to 80% confluence. Cultures were incubated in DMEM plus 0.1% bovine serum albumin (BSA) and 0.1% BCS to which either vehicle control, carboplatin (0-50 μg/ml), LY294002 (0-20 μM) or combinations of these treatments. Following 24, 48 or 72 hr cells were lysed with sample buffer (62.5 mM Tris-HCl, pH 6.8, 2% SDS, 5% glycerol, […], 0.5% β-mercaptoethanol). Total cell lysates were subjected to SDS polyacrylamide gel electrophoresis 9 page) and transferred to PVDF membranes (Millipore, Bedford, Mass.). Membranes were immunoblotted with antibodies to both the phosphorylated and non-phosphorylated forms of […] (Cell Signaling Technology, Beverly, Mass.), or alternatively, with antibodies to cleaved and full length caspase-3 (Cell Signaling Technology, Beverly, Mass.).

[4] = tested on: OCC1-SEAP-12 ovarian cancer cells; assay: Cell survival by DNA content of culture wells (Example III); assay type: cell-based, human
Method: Cell survival was assessed as cell number remaining in culture following exposure to treatments. The DNA content of individual culture wells was used as an indication of cell number. Cells plated in 24 well culture plates were allowed to approach confluence (80%) in Ham's F-12 medium plus 10% BCS. […] Media aliquots were taken when appropriate for SEAP analysis. The DNA was measured fluorometrically as previously described (Nilsson […], Ligon […]. An in vivo mouse reporter gene (human secreted alkaline phosphatase) model to monitor ovarian tumor growth and response to therapeutics. Cancer Chemother Pharmacol 2002; 49(2):93-100). Briefly, the fluorescence of aliquots of sonicated cell suspensions into which SYBR Green I fluorescent dye (Molecular Probes, Eugene Oreg.) had been incorporated, was measured.

[5] = tested on: OCC1-SEAP-12 ovarian cancer cells; assay type: in vivo
Method: Athymic nude mice were obtained and inoculated intraperitoneally with OCC1-SEAP-12 cells as described above in Examples I and II. Animals received injections of either vehicle control (PBS containing 25% DMSO), or carboplatin (60 mg/kg) alone, or in combination with LY294002 (50 mg/kg) every other day for 6 days. Blood samples were collected into capillary tubes from saphenous vein lancings at regular intervals during and following treatments. Capillary tubes were centrifuged, and the plasma samples were frozen (−20° C.), until the time of SEAP assay. The Washington State University Animal Care and Use Committee approved all procedures.
Blood plasma and cell culture medium samples were assayed for SEAP activity using the Great EscAPe SEAP fluorescence detection kit (Clontech Laboratories, Palo Alto, Calif.) as described above in Examples I and II. Blood plasma samples were diluted 1:100 prior to the assay to bring values within the linear range of the standard curve. The intraassay and interassay coefficients of variation were 2.5% and 18.8%, respectively.

[6] = tested on: OCC1-SEAP-12 ovarian cancer cells; settings: LY294002 alone (Westfall and Skinner 2005); cited from earlier work
[7] = tested on: OCC1-SEAP ovarian cancer cells; assay: Cell survival by DNA content of culture wells (Example II); assay type: cell-based, human; settings: 48 hours; triptolide 100 ng/ml, carboplatin 50 (FIG. 8 legend: mg/ml)
Method: Cell survival was assessed as the number of cells remaining in culture, following exposure to treatments. The DNA content of individual culture wells was used as an indication of cell number. Cells plated in 24 well culture plates were allowed to approach confluence (80%) in Ham's F-12 medium plus 10% BCS. Cultures were then incubated in DMEM, plus 0.1% BSA and 0.1% BCS, in the presence of vehicle control, carboplatin (0-100 μg/ml), Triptolide (100 ng/ml) or a combination of these for 24 to 96 hrs. Media aliquots were taken when appropriate for SEAP analysis. The DNA was measured fluorometrically, as described above, in Example I. Briefly, the fluorescence of an aliquot of sonicated cell suspension, into which SYBR Green I fluorescent dye (Molecular Probes, Eugene, Oreg.), had been incorporated was measured.

[8] = tested on: OCC1-SEAP cell cultures; assay: DNA fragmentation (laddering) on agarose gel (Example II); assay type: cell-based, human; settings: 48 hr; TPL 100 ng/ml, carboplatin 50 μg/ml
Method: Following 48 h to 72 h treatment incubations, cells were suspended into culture medium and pelleted in tubes. DNA was isolated from collected cells using a Puregene™ DNA isolation kit (Gentra Systems, Minneapolis, Minn.). The quantity and purity of nucleic acid preparations were estimated by measuring the absorbance of each sample (A260/A280). DNA preparations (10 μg/well) were loaded onto 1.2% agarose gels and visualized with ethidium bromide stain.

[9] = tested on: caspase-3; assay: Western blot for active caspase-3 (Example II); assay type: cell-based, human; settings: 24 h; TPL 100 ng/ml, carboplatin 50
[10] = tested on: OCC1-SEAP tumor; assay: Nude mouse tumor model, intraperitoneal OCC1-SEAP cells, plasma SEAP (Example II); assay type: in vivo
From the text: Athymic nude mice (NCR Nu/Nu) were either purchased from Taconic (Germantown, N.Y.) or bred in-house at Washington State University, Pullman, Wash. The OCC1-SEAP cells were collected in Hank's balanced salt solution and counted prior to injection. Treatments were initiated 7 to 10 days following an intraperitoneal inoculation of mice with 1×10^7 OCC1-SEAP cells, as described above, in Example I.
Stock solutions of carboplatin (paraplatin; Bristol-Myers Squibb, Princeton, N.J.) and TPL (Calbiochem, CA), were prepared in sterile filtered PBS and DMSO, respectively. Animals received intraperitoneal injections of either vehicle controlled (PBS containing 4% DMSO), or carboplatin (60 mg/kg), alone, or in combination with TPL (0-1.0 mg/kg), every other day for 5 days. Alternatively, TPL (0.15 mg/kg) was injected every day for 10 days. For these experiments, carboplatin was administered under the same schedule of every other day for 5 days. Some mice were also treated with 40 mg/kg of LY294002 every other day for 5 days, with an intraperitoneal injection in the presence of TPL and carboplatin. Blood samples were collected into capillary tubes from saphenous vein lancings at regular intervals during and following treatments. The capillary tubes were centrifuged and the plasma samples were frozen at −20° C., until the time of SEAP assay. The Washington State University Animal Care and Use Committee approved all procedures.
Blood plasma and cell culture medium samples were assayed for SEAP activity using the Great EscAPe SEAP fluorescence detection kit (Clontech Laboratories, Palo Alto, Calif.), as described above in Example I. Blood plasma samples were diluted 1:100, prior to the assay to bring values within the linear range of the standard curve. The intraassay and interassay coefficients of variation were 2.5% and 18.8%, respectively. In the case of the experiments in which mice were treated with a combination of TPL, LY294002 and carboplatin, there was some variation in the extent of tumor growth in the control mice. In order to better compare response to treatment across experiments, the SEAP assay data between experiments were normalized by dividing each data point by the overall mean of all SEAP measurements from that experiment and up, through day 18. The normalized data then reflect the relative tumor burden of each mouse, compared to others in the experimental group, and can be combined across experiments.

[11] = tested on: solid tumor types; settings: TPL 0.15 mg/kg; cited from earlier work
[12] = TPL 0.15 mg/kg, nude mice; cited from earlier work
[13] = tested on: breast cancer xenografts; settings: TPL 0.5 mg/kg; cited from earlier work
[14] = tested on: OCC1-SEAP intraperitoneal tumors; assay: Nude mouse intraperitoneal OCC1-SEAP tumor model, plasma SEAP (Example I); assay type: in vivo, athymic nude mice
Method: Athymic nude mice (Nu/Nu; Charles River Laboratories, Wilmington, Mass.) weighing about 25 g were used for in vivo studies.
Three mice were injected intraperitoneally with 1×10^7 OCC1-SEAP-12 cells. The experimental treatments began after 1 week. […] Alternatively, four mice with well-developed tumors (2-4 weeks after injection) were treated with a high dose of carboplatin (60 mg/kg) three times over a period of 4 days. After death all visible intraperitoneal tumors were dissected out and weighed.
Blood samples were collected from saphenous vein lancings three times per week into heparinized capillary tubes. The capillary tubes were centrifuged and the plasma samples were frozen at −20° C. until the time of SEAP assay. Blood samples were taken for SEAP assay from the mice within 24 hours of death 2-3 weeks after intraperitoneal injection of OCC1-SEAP cells.
Blood plasma and cell culture medium samples were assayed for SEAP activity using the Great EscAPe SEAP fluorescence detection kit (Clontech Laboratories, Palo Alto, Calif.). SEAP is secreted at a constant rate by transfected tumor cells and distributed throughout the body or into the culture medium. SEAP is heat stable, so any endogenous alkaline phosphatase activity in blood plasma is destroyed by heat treatment of the samples (65° C. for 30 minutes) during the assay. The SEAP enzyme in each sample acts on the substrate 4-methylumbelliferyl phosphate during a 1 hour incubation at room temperature to produce a fluorescent product with excitation and emission peaks at 360 and 449 nm, respectively. A fluorimeter is then used to measure SEAP activity. The intra-assay and inter-assay coefficients of variation were 2.5% and 18.8%, respectively. Blood plasma samples were diluted 1:100 prior to the assay to bring values within the linear range of the standard curve.

## O=c1cc(N2CCOCC2)oc2c(-c3ccccc3)cccc12 [LY294002, 2-(4-morpholinyl)-8-phenyl-4H-1-benzopyran-4-one]
[1]
  block of basal DNA synthesis: 50%
[2]
  Akt phosphorylation: blocked basal levels
[3]
  time at which active 17 kDa caspase 3 appears: 72 h
[4]; 5 μM LY294002, 48 hr incubation
  reduction of cell number: 22%
[4]; 10 μM LY294002, 48 hr incubation
  reduction of cell number: 44%
[5]; physical appearance of mice after treatment
  abdominal swelling (FIG. 24): displayed abdominal swelling
[5]; single agents: LY294002 50 mg/kg, carboplatin 60 mg/kg
  tumor size vs vehicle control (FIG. 23): no significant difference
[6]
  effect on ovarian cancer tumor progression: negligible effects

## CC(C)[C@]12O[C@H]1[C@@H]1O[C@]13[C@]1(O[C@H]1C[C@H]1C4=C(CC[C@@]13C)C(=O)OC4)[C@@H]2O [TPL, Triptolide]
[7]
  decrease in cell survival (μg DNA/ml) compared to control cultures: approximately 40%
[8]
  DNA laddering: evident
[9]
  induction of active caspase-3: robust induction
[10]; TPL 0.5 mg/kg ip every other day over 5 days
  toxicity: no apparent toxicity
[10]; TPL 1.0 mg/kg intraperitoneal
  mice expired within 24 hours: 2 of 3
[10]; TPL 0.125, 0.25 or 0.5 mg/kg ip every other day over 5 days
  SEAP values vs vehicle control: not significant differences
[10]; high dose, short duration: TPL 0.5 mg/kg, carboplatin 60 mg/kg every other day for 5 days
  tumor burden vs vehicle control (FIG. 11): no significant difference
[10]; low dose, long duration: TPL 0.15 mg/kg every day for 10 days, carboplatin 60 mg/kg every other day for 5 days
  tumor burden as measured by SEAP levels vs vehicle control (FIG. 12): no significant difference
[11]
  inhibition of growth and metastasis of solid tumors: potent
[12]
  dose as share of the maximum tolerated dose: 60%
[13]
  toxicity of dose: lethal

## N.N.[Cl][Pt][Cl] [cisplatin]
[14]; 3 or 10 mg/kg cisplatin every 48-72 h over a 2-week period, intraperitoneal
  tumor growth by plasma SEAP compared to vehicle controls: decreased tumor growth
[14]; cisplatin 3 vs 10 mg/kg
  difference in tumor growth between 3 and 10 mg/kg: No difference
